For the data set, the system named is MC3T3-E1 cells. Description: Cytotoxicity test (MTT) of solvents, material extracts on MC3T3-E1 cells. The format is cell-based. The following applies: p<0.05, FIG. 1. The method, then: FIG. 1 is a graph of a cytotoxicity test according to one embodiment of the invention. The test will be described with reference to FIG. 1.
A: NMP, B: DMSO, C: DEGEE, and D: DMSO 80%+DEGEE 20%
Cytotoxicity was measured with respect to the above four kinds of solvents by the following method:
(i) A specimen was placed in a mold with a thickness of 2 mm and a diameter of 10 mm, and hardened in an incubator at 37° C. for 3 days. (ii) A material extract was derived by filling the hardened specimen with a medium at a surface area/medium ratio of 0.5 cm^2 per ml and incubating it at 37° C. for 3 days. (iii) 1.5×10^4 MC3T3-E1 cells were seeded per well on a 24-well culture plate and incubated for 24 hours, and then the medium was sucked off. 1 ml of the material extract was placed in each well and set in triplicate. (iv) The material extracts were incubated for 24 hours, 48 hours and 72 hours, respectively, and then the medium was discarded. The material extracts were treated with 200 μl of 0.05% MTT solution, wrapped in aluminum foil, and reacted in the incubator at 37° C. for 2 hours. (v) 200 μl of DMSO was added after the reaction. Then, 200 μl of the reaction solution was transferred to each well in a 96-well plate and absorbance was measured at 590 nm.

The mark [1] stands for this setting: all tests and all times (24, 48, 72 hours), compared with NMP groups.

This passage reports cell survival rate results from patent publication US11517508B2, “Composition for single-paste type hydraulic endodontic filling material comprising dimethyl sulfoxide” (MARUCHI, priority 2016, dated 2022).

As to `C[S+](C)[O-]` [DMSO, dimethyl sulfoxide], the cell survival rate entry (48 hours and 72 hours, comparison between solvent groups) was “significantly higher cell survival rate than groups for which DEGEE and a mixture of DMSO and DEGEE were used as solvents”; the cell survival rate result under setting [1] is “higher cell survival rate than groups for which NMP was used as a solvent”.

For the molecule `CCOCCOCCO` [DEGEE, diethylene glycol monoethyl ether, reference compound], the cell survival rate result under setting [1] was “higher cell survival rate than groups for which NMP was used as a solvent”.
